The test system of this assay is HCT-15. The experiment in a line: HCT-15 data of payloads and linker-payloads (EC50, with or without verapamil). It counts as cell-based.
Setting [1] is: Homo sapiens, payload, HCT-15 cells, no verapamil, read-out: HCT-15 EC50.
[2] abbreviates: payload, HCT-15 cells plus verapamil, read-out: HCT-15 + verapamil EC50.

Where two headings read alike, the source gives them in different places. Where a SMILES comes first, the peptide text is derived from it. The star is where a group is joined. Exatecan = CC[C@@]1(O)C(=O)OCc2c1cc1n(c2=O)Cc2c-1nc1cc(F)c(C)c3c1c2[C@@H](N*)CC3; Acetyl(cyclooct-2-yn-1-ylO) = O=C(COC1C#CCCCCC1)*

Broadly, the EC50 is the concentration needed to bring the measured effect to its halfway point.

Regarding `CC[C@@](O)(C(=O)NCCN)c1cc2n(c(=O)c1COC(C)=O)Cc1c-2nc2cc(F)c(C)c3c2c1[C@@H](NC(=O)COC(C)=O)CC3` [P13, {[(19S)-6-[(Acetyloxy)methyl]-7-[(1 S)-1-[(2-aminoethyl)carbamoyl]-1-hydroxypropyl]-14-fluoro-15-methyl-5-oxo-4,11-diazapentacyclo[10.7.1.0^2,^10.0^4,^9.0^16,^20]icosa-1,6,8,10,12,14,16(20)-heptaen-19-yl]carbamoyl}methyl acetate], the EC50 under setting [1] was found to be 134 nM. As for `CCc1c2c(nc3ccc(O)cc13)-c1cc3c(c(=O)n1C2)COC(=O)[C@]3(O)CC` [P16, 7-ethyl-10-hydroxycamptothecin, reference compound], the EC50 under setting [1] stood at 6.11 nM and the EC50 under setting [2] is 4.77 nM. On the same counts, the results for `CC[C@@]1(O)C(=O)OCc2c1cc1n(c2=O)Cc2c-1nc1cc(F)c(C)c3c1c2[C@@H](NS(C)(=O)=O)CC3` [P6, N-[(10S,23S)-10-ethyl-18-fluoro-10-hydroxy-19-methyl-5,9-dioxo-8-oxa-4,15-diazahexacyclo[[14.7.1.0^2,^14.0^4,^13.0^6,^11.0^20,^24]]tetracosa-1,6(11),12,14,16,18,20(24)-heptaen-23-yl]methanesulfonamide] are 7.45 nM and 3.16 nM. Take `CC[C@@]1(O)C(=O)OCc2c1cc1n(c2=O)Cc2c-1nc1ccc(OC)cc1c2CN(C)Cc1ccc(OC)cc1` [P25, (S)-4-ethyl-4-hydroxy-9-methoxy-11-(((4-methoxybenzyl)(methyl)amino)methyl)-1,12-dihydro-14H-pyrano[3′,4′:6,7]indolizino[1,2-b]quinoline-3,14(4H)-dione]: the EC50 under setting [1] is 46.8 nM. Take `CCc1c2c(nc3ccc(OC)cc13)-c1cc([C@@](O)(CC)C(=O)NCCN)c(COC(C)=O)c(=O)n1C2` [P18, {7-[(1 S)-1-[(2-Aminoethyl)carbamoyl]-1-hydroxypropyl]-12-ethyl-2-methoxy-9-oxo-9H,11H-indolizino[1,2-b]quinolin-8-yl}methyl acetate]: the EC50 came to 32.5 nM under setting [1] and 32.8 nM under setting [2]. As for `CC[C@@]1(O)C(=O)OCc2c1cc1n(c2=O)Cc2c-1nc1cc(F)c(C)c3c1c2[C@@H](NC(=O)CNC(=O)CNC(=O)CNC(=O)CNC(=O)COC1C#CCCCCC1)CC3` (stereo partly drawn) [LP8, 2-(2-{2-[2-(Cyclooct-2-yn-1-yloxy)acetamido]acetamido}acetamido)-N-({[(10S,23S)-10-ethyl-18-fluoro-10-hydroxy-19-methyl-5,9-dioxo-8-oxa-4,15-diazahexacyclo[14.7.1.0^2,^14.0^4,^13.0^6,^11.0^20,^24]tetracosa-1,6(11),12,14,16,18,20(24)-heptaen-23-yl]carbamoyl}methyl)acetamide] ({Acetyl(cyclooct-2-yn-1-ylO)}-GGGG-Exatecan), the EC50 (Homo sapiens, linker-payload, HCT-15 cells, read-out: HCT-15 EC50) came to 837 nM. In the case of `CC[C@@]1(O)C(=O)OCc2c1cc1n(c2=O)Cc2c-1nc1cc(F)c(C)c3c1c2[C@@H](NC(=O)[C@@H](N)Cc1ccccc1)CC3` [P5, (2S)-2-amino-N-[(10S,23S)-10-ethyl-18-fluoro-10-hydroxy-19-methyl-5,9-dioxo-8-oxa-4,15-diazahexacyclo[[14.7.1.0^2,^14.0^4,^13.0^6,^11.0^20,^24]]tetracosa-1,6(11),12,14,16,18,20(24)-heptaen-23-yl]-3-phenylpropanamide], the EC50 is 48.2 nM under setting [1] and 4.2 nM under setting [2]. As to `CC[C@@]1(O)C(=O)OCc2c1cc1n(c2=O)Cc2c-1nc1cc(F)c(C)c3c1c2[C@@H](NC(=O)CN)CC3` [P2, 2-Amino-N-[(10S,23S)-10-ethyl-18-fluoro-10-hydroxy-19-methyl-5,9-dioxo-8-oxa-4,15-diazahexacyclo[[14.7.1.0^2,^14.0^4,^13.0^6,^11.0^20,^24]]tetracosa-1,6(11),12,14,16,18,20(24)-heptaen-23-yl]acetamide], the EC50 under setting [1] was determined as 61.9 nM and the EC50 under setting [2] was found to be 14.3 nM.

Values taken from patent US20230287138A1, “PROTEIN-DRUG CONJUGATES COMPRISING CAMPTOTHECIN ANALOGS AND METHODS OF USE THEREOF” (Regneron Pharmaceuticals, Inc., priority 2022, published 2023).
